Measurements from patent publication US9820987B2, “Modulator compounds of drug resistance in epithelial tumor cells” (BIONSIL S.R.L. in Liquidazione, priority 2007, dated 2017).
Where two headings read alike, the source gives them in different places.

How the values were obtained:
[1] = system: HCT116p53KO, DLD-1 and SW480 cell lines; assay: cells; conditions: Homo sapiens, 72 h, read-out: cell mortality
Description: The tumor cell line initially used was HCT116p53KO (which differs from the wild type (wt) HCT116 due to the lack of gene p53), related to the colon tumor, while further detailed studies of specific genes were carried out on other drug-resistant tumor cell lines of the colon, such as DLD-1 and SW480, as well as on tumor cell lines of the lung and ovary. In particular, all cell lines that were the object of the analysis, were related to tumors of epithelial type.

HCT116p53KO cells [2] = assay: Calcein cell viability assay, ibrutinib with or without 5FU; format: cell-based, human; conditions: 72 hr; for percentage of live HCT116p53KO cells (100% = living cells at day 0): without ibrutinib 177.5%
Description: (§1) 100% represent the percentage of living cells at day 0, before starting the treatment.
(§2) Viability was evaluated after 72 hr of incubation by calcein assay. 100% represent the percentage of living cells at day 0, before starting treatment with the drugs. […] At the end of the treatment, cell viability was evaluated by calcein assay. 100% represent the percentage of living cells at day 0, before starting treatment with the drugs.

HCT116 cells [3] = conditions: 200 μM 5FU, 72 hr
Description: as §1, §2

[4] = system: HCT116 overexpressing p65BTK (HCT116-p65BTK); conditions: 200 μM 5FU, 72 hr
Description: as §2

[5] = system: tumor cells of the colon-rectum in advanced phase; conditions: therapy based on 5FU; cited from earlier work
HCT116 cells [6] = conditions: 72 hr
HCT116p53KO cells [7] = conditions: 200 μM 5FU, 20 μM ibrutinib, singly or combined, 72 hr
wt HCT116 cells = assay: cells; conditions: Homo sapiens, HCT-116, 72 h, read-out: cell mortality
HCT116p53KO xenografts = assay: Subcutaneous xenograft, drug-resistant tumors; conditions: for average volume of the tumor masses: after 28 days, 5FU 60 mg/kg i.p. twice a week, alone or combined, control ≈955
HCT116 xenografts = assay: Subcutaneous xenograft, drug-sensitive tumors; conditions: for increase of the tumor doubling time / reduction in the tumor volume: 5FU versus untreated or ibrutinib-treated group p<0.05; for average volume of the tumor masses: after 28 days, alone or combined, control ≈435
SW480 colon cancer cells = conditions: 72 hr
Description: FIG. 26a: SW480; FIG. 26b: HT-29.
as §2
100% represent the percentage of living cells at day 0, before starting treatment with the drugs.

HT-29 colon cancer cells = conditions: with 200 μM 5FU, 72 hr
Description: Cells were treated for 72 hrs in absence of any drug or in presence of FU 200 μM; 1 μM AVL-292; 1 μM AVL-292+5FU 200 μM; 5 μM AVL-292; 5 μM AVL-292+5FU 200 μM; 10 μM AVL-292; […]; viability was evaluated at the end of the incubation using the calcein assay. FIG. 26a: SW480; FIG. 26b: HT-29.
In the experiments shown in FIG. 26 SW480 and HT-29 colon carcinoma cell lines were grown in vitro for 72 hr in the presence of different concentrations of AVL-292, a small molecule inhibitor of BTK, (Celgene Corporation, Summit, N.J.) (from 0 to 20 μM) and of 5FU (200 μM)+AVL-292 (from 0 to 20 μM); cell viability was evaluated at the end of the incubation using the calcein assay. 100% represent the percentage of living cells at day 0, before starting treatment with the drugs.

HCT116p53KO cells [8] = assay: Reversion of 5FU resistance by functional blocking of BTK (cell death); format: cell-based, human; conditions: 200 μM 5FU, 72 hr; agents compared with each other
Description: FIG. 8 is a graph illustrating the reversion of the resistance to a chemotherapeutic drug of tumor cell line HCT116p53KO carried out by means of functional blocking of the gene BTK obtained with different methods.
In FIG. 8, the results of the comparison test are reported in a graph of the functional blocking of the BTK gene by means of plasmids (e.g., encoding p68BTK), siRNA or LFM-A13 in samples of HCT116p53KO cells treated with 5FU. […] In detail, FIG. 8 compares the percentages of cell deaths in the presence of 200 μM 5FU (72 hr treatment) upon wt HCT116 cells and HCT116p53KO drug resistant cells with or without (symbol “empty” and “−”) specific depletions of BTK following transient siRNA transfection (symbol “BTKi”), stable retroviral-mediated RNA interference (symbol “shBTK”), and using LFMA13, an inhibitor compound of BTK.

A549 cells (lung tumor) = assay: Cell death with or without BTK inhibition by LFM-A13; format: cell-based, human; conditions: 200 μM 5FU, 50 μM OxPt, or the combination of the two
Description: (§3) The diminution of the resistance to chemotherapeutic drugs following the functional blocking of the gene BTK by means of LFM-A13 was further confirmed by tests conducted in vitro on epithelial tumor cell lines different from those of the colon. In FIG. 11 levels of BTK have been investigated, by means of Western blot, in several different epithelial carcinoma cell lines showing that the kinase is expressed in most of them. In particular, in FIGS. 12a and 12b, graphs were reported of the reversion tests obtained on SKOV cell lines (related to an ovarian tumor) and A549 cell lines (related to a lung tumor).
(§4) In detail, FIG. 12a compares the percentages of cell deaths in the absence (symbol “NT” and “−”) and presence of 200 μM 5FU, 50 μM OxPt, and the combination of the two upon resistant ovarian (SKOV) cells with or without BTK inhibition through the usage of LMFA13. […] FIG. 12b compares the percentages of cell deaths in the absence (symbol “NT” and “−”) and presence of 200 μM 5FU, 50 μM OxPt, and the combination of the two upon resistant lung (A549) cells with or without BTK inhibition through the usage of LMFA13.

[9] = system: SKOV cells (ovarian tumor); assay: as above; format: cell-based, human; conditions: 200 μM 5FU, 50 μM OxPt, or the combination of the two
Description: as §3, §4

HCT116p53KO cells [10] = assay: Caspase 3/7 activation assay; format: cell-based, human; conditions: 5FU-treated cells in the presence of LFM-A13; luminometric assay
Description: FIG. 14 is a graph illustrating the results of […] caspase activation assays after 72 hrs and 96 hrs in HCT116 and HCT116p53KO colon carcinoma cells treated with 5FU, BTK inhibition, or the combination of the two.
The results have shown that BTK levels determine the sensitivity of tumor cells to 5FU and that BTK inhibition reverses drug-resistance. […] The same finding is also supported by the graph reported in FIG. 14, evaluating the level of caspase 3/7 activation upon 5FU treatment in HCT116p53KO resistant cells in the presence or in the absence of BTK inhibitor LFM-A13. High levels of caspase 3/7 activation, measured by means of a luminometric assay as RLU/number of cells, are observed in 5FU-treated HCT116p53KO cells only when BTK is inhibited.

[11] = system: 5FU-resistant, p53-null (HCT116p53KO, SW480 and HT-29) cell lines; assay: Calcein cell viability assay, ibrutinib dose range; format: cell-based, human; conditions: highest concentration (range 0 to 30 μM), 72 hours
Description: as §1

[12] = system: HCT116p53KO, SW480, DLD-1 and HCT116 cell lines; conditions: up to 10 μM, 72 hours
HCT116p53KO cells [13] = assay: Short-term viability under targeted therapy with or without ibrutinib (MTT); format: cell-based, human; conditions: 25 μg/ml bevacizumab, 10 μg/ml cetuximab or 75 μg/ml panitumumab alone, 72 hr
[14] = dasatinib 50 mpk oral gavage once a day 5 days a week
[15] = ibrutinib 25 mpk oral gavage once daily 5 days a week
[16] = 5FU 60 mg/kg ± dasatinib 50 mpk, p<0.05

## O=c1[nH]cc(F)c(=O)[nH]1 [5FU, 5-fluorouracil]
[1]
  mortality at 200 µM: < 10%
HCT116p53KO cells [2]; 5FU 200 μM alone
  effect on viability: little effect
HCT116 cells [3]
  response to the cytotoxic effect of 5FU: sensitive
[4]
  response to the cytotoxic effect of 5FU: resistant
[5]
  effective response (share of the cells): 10-15%
HCT116 cells [6]; 10 μM 5FU, 10 μM ibrutinib, singularly or in combination
  cell death (photographs): no cell death
HCT116 cells [6]; 5FU 200 μM
  cell death (photographs): massive cell death
HCT116p53KO cells [7]
  cell death (photographs): no cell death
Wt HCT116 cells
  mortality at 200 µM: > 95%
HCT116p53KO xenografts; 5FU 60 mpk, ibrutinib 25 mpk, 5FU+Ibr25 Vs. Ctrl p=0.012, Vs. Ibr25 p=0.039
  reduction of the tumor volume (significance): did not cause a significant reduction
HCT116p53KO xenografts; [14]
  average volume of the tumor masses: ≈ 530 mm^3
HCT116p53KO xenografts; [15]
  average volume of the tumor masses: ≈ 530 mm^3
HCT116 xenografts; [16]
  increase of the tumor doubling time versus untreated (or dasatinib-treated) group: significant
  reduction in the tumor volume versus untreated (or dasatinib-treated) group: significant
HCT116 xenografts; 5FU 60 mpk, ibrutinib 25 mpk
  increase of the tumor doubling time: significant
  reduction in the tumor volume: significant
  average volume of the tumor masses: ≈ 226 mm^3
HCT116 xenografts; 5FU 60 mpk, ibrutinib 50 mpk
  increase of the tumor doubling time: significant
  reduction in the tumor volume: significant
  average volume of the tumor masses: ≈ 226 mm^3
HCT116 xenografts; 5FU 60 mg/kg, dasatinib 50 mpk
  average volume of the tumor masses: 226 mm^3

## C=CC(=O)Nc1cccc(Nc2nc(Nc3ccc(OCCOC)cc3)ncc2F)c1 [AVL-292]
SW480 colon cancer cells; 5 μM combined with 200 μM 5FU
  cell death: 66.8%
SW480 colon cancer cells; 10 μM alone
  cell death: 19.9%
SW480 colon cancer cells; 20 μM alone
  cell death: 65.3%
HT-29 colon cancer cells
  AVL-292 concentration from which sensitization to the cytotoxic effect of 5FU starts: ≥ 20 µM

## C/C(O)=C(\C#N)C(=O)Nc1cc(Br)ccc1Br [LFM-A13, (2Z)-2-cyan-N-(2,5-dibromophenyl)-3-hydroxy-2-butenamide]
HCT116p53KO cells [8]
  level of reversion to the drug resistance, expressed as percentage fraction of dead cells: comparable
A549 cells (lung tumor)
  percentage of cell deaths with LFM-A13 compared to without: high percentage of tumor cell death
[9]
  percentage of cell deaths with LFM-A13 compared to without: high percentage of tumor cell death
HCT116p53KO cells [10]
  caspase 3/7 activation: High levels

## Cc1nc(Nc2ncc(C(=O)Nc3c(C)cccc3Cl)s2)cc(N2CCN(CCO)CC2)n1 [dasatinib]
HCT116p53KO xenografts; [14]
  average volume of the tumor masses: ≈ 355 mm^3
HCT116 xenografts; 5FU 60 mg/kg, dasatinib 50 mpk
  average volume of the tumor masses: ≈ 343 mm^3

## C=CC(=O)N1CCC[C@@H](n2nc(-c3ccc(Oc4ccccc4)cc3)c3c(N)ncnc32)C1 [ibrutinib]
[11]
  number of cells (100% = living cells at day 0): below 100%
HCT116p53KO cells [2]; 10 μM ibrutinib
  percentage of live HCT116p53KO cells (100% = living cells at day 0): 130.2%
HCT116p53KO cells [2]; 20 μM ibrutinib
  percentage of live HCT116p53KO cells (100% = living cells at day 0): 116.1%
HCT116p53KO xenografts; [15]
  average volume of the tumor masses: ≈ 760 mm^3
HCT116 xenografts; 5FU 60 mpk, ibrutinib 25 mpk
  average volume of the tumor masses: ≈ 347 mm^3
HCT116 xenografts; 5FU 60 mpk, ibrutinib 50 mpk
  average volume of the tumor masses: ≈ 372 mm^3
[12]
  cytotoxicity: not cytotoxic

## bevacizumab: monoclonal antibody used in anti-cancer therapy for targeting VEGF
HCT116p53KO cells [13]
  cell viability: does not affect

## panitumumab: monoclonal antibody used in anti-cancer therapy for targeting EGFR
HCT116p53KO cells [13]
  cell viability: does not affect
